Laboratory results taken from patent US7947668B2, “Aminoalkyl sterol compounds having an anti-tumoral and neuroprotective activity” (Institut National de la Sante et de la Recherche Medicale, priority 2002, dated 2011).

B1: IL-4: interleukin-4, cytokine (protein, UniProt P05112 25-153, looked up)
Interleukin-4: HKCDITLQEIIKTLNSLTEQKTLCTELTVTDIFAASKNTTEKETFCRAATVLRQFYSHHEKDTRCLGATAQQFHRHKQLIRFLKRLDRNLWGLAGLNSCPVKEANQSTLENFLERLKTIMREKYSKCSS

Assays:
[1] = tested on: C57BL/6 mouse spleen monocytes; assay: Dendritogenesis on C57BL/6 mouse spleen monocytes; assay type: cell-based; details: dose of 1 nM, 36 hours after the start of action
Procedure: 1) On C57BL/6 Mouse Spleen Monocytes
5-week-old mice are sacrificed by cervical dislocation. They are then dissected. The spleens are removed under sterile conditions and then placed in a cold solution (4° C.) containing serum-free culture medium supplemented with antibiotics (streptomycin and penicillin). The spleens are ground in a sterile fume cupboard and then filtered through a 100 μm filter. The eluate is recovered and then centrifuged at 1000 rpm for 5 minutes at 4° C. The cell pellet is resuspended in phosphate-buffered saline (PBS) solution containing […], the purpose of which is to lyze the red blood cells. The suspension is centrifuged at 1000 rpm and the cells are then resuspended in PBS. The washing operation is performed twice. The final resuspension is performed in whole culture medium, and the cells are counted and distributed into six-well dishes at a density of 40 000 cells/ml. Four hours later, the adhering cells are washed vigorously with PBS in order to remove the cells that might remain attached to the adhering cells or to the culture dish.
The conversion was obtained with a dose of 1 nM, the photograph having been taken 36 hours after the start of action of the product. The test product is that of example 9. The appearance of cellular extensions is observed, which is one of the main characteristics of activated dendritic cells.

P19 cells = assay: Neuritogenesis on mouse P19 cells; assay type: cell-based; details: dose of 10 nM; after 12 hours of treatment
Procedure: The P19 cells are derived from a mouse embryonic carcinoma. They are pluripotent cells, which can change into neurones or into glial cells by treatment with retinoic acid (J. Cell. Biol. 1982 August, 94 (2): pp. 253-262) and can differentiate into muscle cells in the presence of dimethyl sulfoxide (Nature 1982-9 September, 299(58 79): pp. 165-167).
The P19 cells are cultured in the presence of an “RPMI 1640” culture medium sold by the company “Gibco BRL”, this medium being supplemented with 2 mM of glutamine and 4% by weight of fetal calf serum. They are inoculated at low density (10 000 cells per 60-mm well). The P19 cells are treated with the compound of example 6; they are then observed by phase-contrast microscopy. […]

U-937 cells = assay: Production of IL-12p70 and IL-10 by the dendritic cells (ELISA); assay type: cell-based, human; details: treatments extending over a period of two weeks
Procedure: The culture supernatants are frozen at a temperature of −80° C. until the time of testing for the presence of cytokines. The presence of IL-12p70 and IL-10 is measured using ELISA kits obtained from “Endogen” (Woburn, Mass., USA).
This phenomenon continues for the two weeks of treatment.

PC12 cells = assay: Neuritogenesis on PC12 cells; assay type: cell-based; details: dose of 10 nM, action time 36 hours
Procedure: The PC12 cells were cultured at an initial density of 1.5×10^5 cells/ml in RPMI 1640 medium supplemented with 10% fetal calf serum and 5% horse serum. The base of the culture dishes is treated with a 0.1 wt % polylysine or collagen solution in order to cause adhesion of the cells. The supernatant cells are removed after 12 hours and then treated with or without nerve growth factor (NGF) at 10 ng/ml, with or without the compound of example 6 or of example 7. The cells are observed by phase-contrast microscopy.
The PC12 cells treated by means of the compound of example 6 were treated at a dose of 10 nM, the action time of the compound being 36 hours.

Row | Molecule | morphological changes on the mouse monocytes, conversion into dendritic cells [1] | change in morphology of P19 cells toward dendrites (P19 cells) | other results
1 | GM-CSF: cytokine used with IL-4 to differentiate monocytes into dendritic cells | ineffective | – | –
2 | CC(C)CCC[C@@H](C)[C@H]1CC[C@H]2C3=C[C@@H](NCCCNCCCCNCCCN)[C@@]4(O)C[C@@H](O)CC[C@]4(C)[C@H]3CC[C@]12C [Example 7, cholest-7-ene-3β,5α-diol-6β-N-[N,N′-bis(3-aminopropyl)butane-1,4-diamine]] | – | same observations | –
3 | NCCc1c[nH]cn1 [amine, 2-(1H-imidazol-4-yl)ethylamine, reference compound] | ineffective | – | –
4 | CC[C@H](CC[C@@H](C)[C@H]1CC[C@H]2[C@@H]3C[C@@H](NCCCCNCCCN)[C@@]4(O)C[C@@H](O)CC[C@]4(C)[C@H]3CC[C@]12C)C(C)C [Example 44, sitostane-3β,5α-diol-6β-N-[1-N1-(3-aminopropyl)butane-1,4-diamine]] | – | same observations | –
5 | CC(C)CCC[C@@H](C)[C@H]1CC[C@H]2[C@@H]3C[C@@H](NCCCNCCCCNCCCN)[C@@]4(O)C[C@@H](O)CC[C@]4(C)[C@H]3CC[C@]12C [Example 5, cholestane-3β,5α-diol-6β-N-[N,N′-bis(3-aminopropyl)butane-1,4-diamine]] | – | same observations | –
6 | CC(C)[C@H](C)CC[C@@H](C)[C@H]1CC[C@H]2[C@@H]3C[C@@H](NCCCNCCCCNCCCN)[C@@]4(O)C[C@@H](O)CC[C@]4(C)[C@H]3CC[C@]12C [Example 43, campestane-3β,5α-diol-6β-N-[N,N′-bis(aminopropyl)butane-1,4-diamine]] | – | same observations | –
7 | CC(C)CCC[C@@H](C)[C@H]1CC[C@H]2[C@@H]3C[C@@H](NCCCCNCCCN)[C@@]4(O)C[C@@H](O)CC[C@]4(C)[C@H]3CC[C@]12C [Example 4, cholestane-3β,5α-diol-6β-N-[1-N1-(3-aminopropyl)butane-1,4-diamine]] | – | same observations | –
8 | CC(C)CCC[C@@H](C)[C@H]1CC[C@H]2[C@@H]3C[C@@H]4O[C@@]45C[C@@H](O)CC[C@]5(C)[C@H]3CC[C@]12C [epoxy-cholesterol derivative, 5,6-α-epoxycholestan-3β-ol, reference compound] | ineffective | – | –
9 | CC(C)[C@H](C)CC[C@@H](C)[C@H]1CC[C@H]2[C@@H]3C[C@@H](NCCCCNCCCN)[C@@]4(O)C[C@@H](O)CC[C@]4(C)[C@H]3CC[C@]12C [Example 45, campestane-3β,5α-diol-6β-N-[1-N-1-(3-aminopropyl)butane-1,4-diamine]] | – | same observations | –
10 | campestane-3β,5α-diol-6β-N-{[2-(1H-imidazol-4-yl)ethyl]ethylamine} [Example 47] | – | – | transcription/production of IL-10 (U-937 cells): same observations
11 | CC(C)CCC[C@@H](C)[C@H]1CC[C@H]2[C@@H]3CC=C4C[C@@H](O)CC[C@]4(C)[C@H]3CC[C@]12C [cholesterol, reference compound] | ineffective | – | –
12 | sitostane-3β,5α-diol-6β-N-{[2-(1H-imidazol-4-yl)ethyl]ethylamine} [Example 46] | – | – | transcription/production of IL-10 (U-937 cells): same observations
13 | CC[C@H](CC[C@@H](C)[C@H]1CC[C@H]2[C@@H]3C[C@@H](NCCCNCCCCNCCCN)[C@@]4(O)C[C@@H](O)CC[C@]4(C)[C@H]3CC[C@]12C)C(C)C [Example 42, sitostane-3β,5α-diol-6β-N-[N,N′-bis(aminopropyl)butane-1,4-diamine]] | – | same observations | –
14 | CC(C)CCC[C@@H](C)[C@H]1CC[C@H]2C3=C[C@@H](NCCCCNCCCN)[C@@]4(O)C[C@@H](O)CC[C@]4(C)[C@H]3CC[C@]12C [Example 6, cholest-7-ene-3β,5α-diol-6β-N-[1-N-1-(3-aminopropyl)butane-1,4-diamine]] | – | formation of dendrites | change in morphology of PC12 cells toward dendrites (PC12 cells): formation of dendrites
15 | B1 | ineffective | – | –
